These results are taken from US20060217303A1, “Compounds and Methods for Treating Seizure Disorders” (Wisconsin Alumni Research Foundation, priority 2005, published 2006).

For assay [1], the system named is CA3 region of rat hippocampal slices. In words: Synchronized bursting induced by elevated [K+]o in rat hippocampal slices ex corpora (extracellular CA3 recording). The class given is cell-based. The following applies: for burst frequency: 20 mM lactate or 20 mM pyruvate in place of 10 mM glucose in ACSF, 7.5 mM [K+]o; for epileptiform bursting frequency / epileptic discharges evoked in vitro (relative burst frequency): normal glucose conditions; for epileptiform bursting frequency: FIG. 6A; for epileptic discharges evoked in vitro (relative burst frequency): summary statement; for synchronized bursting: 10 mM glucose; for block of the increase in bursting caused by the PEPCK inhibitor 3-MCP: slices simultaneously exposed to 3-MCP, FIGS. 5A, 5B. How it is done:
The effect of various energy sources on synchronized bursting induced by elevation of [K^+]o in rat hippocampal slices ex corpora was evaluated.
In these experiments, postnatal day 28 to 40 male Sprague-Dawley rats were anesthetized and decapitated. Brains were removed and transferred to ice cold artificial cerebrospinal fluid (ACSF, comprising 124 mM NaCl, 5 mM KCl, 1.25 mM NaH2PO4, 1.5 mM MgSO4, 26 mM NaHCO3 and 2 mM CaCl2), supplemented with 10 mM glucose, which was continuously bubbled with 95% O2 and 5% CO2. Transverse hippocampal slices (˜500 microns) were prepared on a Leica VT1000s vibratome (Wetzlar Germany). The slices were allowed to recover for 1 hour at room temperature and were then transferred to an interface recording chamber at 34° C. in ACSF with 7.5 mM [K^+]o. Extracellular recordings were made from the CA3 region with an Axioclamp 2B (Axon Instruments, Forest City, Calif.) using a glass microelectrode filled with 150 mM NaCl. Data were recorded and analyzed using PClamp8 (Axon Instruments).
Synchronized bursting was induced by incubating hippocampal slices in ACSF supplemented with potassium chloride to a final concentration of 7.5 mM [K^+]o. Baseline recordings were obtained after exposure to elevated [K^+]o for 1 hour and the burst frequency had stabilized. Bursting was then recorded in ACSF containing 20 mM lactate or 20 mM pyruvate in place of the 10 mM glucose.

Assay [2] in a line: Duration of anticonvulsant effect of 2DG after stopping treatment while continuing twice daily stimulation. The following applies: 250 mg/kg twice daily for 3 months; twice daily stimulation continued. In kind it is in vivo. How it is done:
. […]; 5 mM solutions of oxaloacetate glycolic acid, chloroacetate and thioglycolate are equivalent to 660 mg/kg 380 mg/kg, ˜620 mg/kg and 460 mg/kg. respectively. […] A practitioner skilled in the art can adjust dosage in the range up to 500-600 mg/kg 2DG and the timing of administration to produce prolonged anticonvulsant and antiepileptic effects. Efficacious dosage amounts can be adjusted to about 14 mg/kg 2-DG in children and 40 mg/kg 2-DG in adults, using therapeutic efficacy measurements (e.g., reduction in frequency or severity of seizures) as a criterion for establishing effective dosage levels.

The subject of assay [3] is brains of animals suffering from a seizure disorder. Particulars: as disclosed in co-owned U.S. Ser. No. 60/580,436; cited from earlier work.

Turning to `CC(=O)C(=O)O` [pyruvate, reference compound], the burst frequency in assay [1] (reversible) is 4±2 % of the baseline.
Turning to `C=C(OP(=O)(O)O)C(=O)O` [PEP, phosphoenolpyruvate, reference compound], the “burst frequency (rate of bursting)” value in assay [1] (5 mM PEP in ACSF with 10 mM glucose, reversible) is listed as 215±32 % of baseline.
Take `O=C(O)CCl` [β-chloroacetate]: in assay [1], the epileptiform bursting frequency result is “reduce epileptiform bursting frequency” and the “epileptic discharges evoked in vitro (relative burst frequency)” value is “effective against epileptic discharges”.
Consider `O=C(O)[C@@H](O)CO` [L-glycerate], for which the “epileptic discharges evoked in vitro (relative burst frequency)” value in assay [1] is “effective against epileptic discharges”.
With `O=CC[C@@H](O)[C@H](O)[C@H](O)CO` [2DG, 2-deoxy-D-glucose], in assay [2], the “duration of anticonvulsant effects after stopping 2DG” value is on record as “approximately 8 weeks”. In addition, the “epileptic or synchronized bursting in the brains of animals” value in assay [3] is “effective in reducing epileptic or synchronized bursting”. Besides, in assay [1] (1 mM 2DG in the presence of 20 mM lactate), the synchronized bursting entry is reported as “reduced synchronized bursting”. Further, in assay [1], the “epileptic discharges evoked in vitro (relative burst frequency)” value is “effective against epileptic discharges” and the “block of the increase in bursting caused by the PEPCK inhibitor 3-MCP” value is recorded as “could not be blocked”.
`O=C(O)c1ncccc1S` [3-MCP, 3-mercaptopicolinic acid, reference compound]: in assay [1] (3 mM 3-MCP in ACSF with 10 mM glucose), the “burst frequency (rate of bursting)” value is on record as 208±28 % of baseline. Further, the rate of bursting result in assay [1] (3-MCP, FIGS. 5A and 5B) is listed as “induces an increase in the rate of bursting”.
Regarding `CC(O)C(=O)O` (stereo not shown) [lactate, reference compound], the burst frequency in assay [1] (reversible) is listed as 63±8 % of the baseline.
For `O=C(O)CO` [glycolic acid], the “block of the increase in bursting caused by inhibition of PEPCK by 3-MCP” value in assay [1] (PEPCK substrate with 3-MCP, FIGS. 6B, 6C) is “modestly blocks an increase in bursting”. Moreover, in assay [1], the epileptiform bursting frequency entry was “reduce epileptiform bursting frequency” and the “epileptic discharges evoked in vitro (relative burst frequency)” value is “effective against epileptic discharges”.
As to thioglycolate, in assay [1], the epileptiform bursting frequency result is “reduce epileptiform bursting frequency” and the “epileptic discharges evoked in vitro (relative burst frequency)” value was “effective against epileptic discharges”.
Take `O=C(O)CI` [iodoacetate, reference compound]: the “epileptic or synchronized bursting in the brains of animals” value in assay [3] was “effective in reducing epileptic or synchronized bursting”. Also, in assay [1] (200 μM iodoacetate, ACSF with 20 mM lactate), the synchronized bursting result is “reduced synchronized bursting”. For the same molecule, in assay [1], the “epileptic discharges evoked in vitro (relative burst frequency)” value is “effective against epileptic discharges” and the “block of the increase in bursting caused by the PEPCK inhibitor 3-MCP” value was “could not be blocked”.
